Laboratory results published in ChEMBL document CHEMBL1144021, “Molecular determinants of the anticonvulsant felbamate binding site in the N-methyl-D-aspartate receptor” (J Med Chem, 2008).
Calls of active or inactive are those of the source. No cut-off for these calls is given here.

Key:
[1] = tested on: Glutamate receptor ionotropic, NMDA 2B (Homo sapiens), Q13224 [L643A]; experiment: Inhibition of NR2B receptor M3c L643A mutant expressed in Xenopus oocytes assessed as NMDA current at 0.5 mM relative to control; type: cell-based; settings: Oocyte
[2] = tested on: Glutamate receptor ionotropic, NMDA 2B (Homo sapiens), Q13224 [D101A]; experiment: Inhibition of NR2B receptor ATD D101A mutant expressed in Xenopus oocytes assessed as NMDA current at 0.5 mM relative to control; type: cell-based; settings: Oocyte
Chain of Glutamate receptor ionotropic, NMDA 2B (Homo sapiens), Q13224 [D101A] (Q13224 whole entry D101A): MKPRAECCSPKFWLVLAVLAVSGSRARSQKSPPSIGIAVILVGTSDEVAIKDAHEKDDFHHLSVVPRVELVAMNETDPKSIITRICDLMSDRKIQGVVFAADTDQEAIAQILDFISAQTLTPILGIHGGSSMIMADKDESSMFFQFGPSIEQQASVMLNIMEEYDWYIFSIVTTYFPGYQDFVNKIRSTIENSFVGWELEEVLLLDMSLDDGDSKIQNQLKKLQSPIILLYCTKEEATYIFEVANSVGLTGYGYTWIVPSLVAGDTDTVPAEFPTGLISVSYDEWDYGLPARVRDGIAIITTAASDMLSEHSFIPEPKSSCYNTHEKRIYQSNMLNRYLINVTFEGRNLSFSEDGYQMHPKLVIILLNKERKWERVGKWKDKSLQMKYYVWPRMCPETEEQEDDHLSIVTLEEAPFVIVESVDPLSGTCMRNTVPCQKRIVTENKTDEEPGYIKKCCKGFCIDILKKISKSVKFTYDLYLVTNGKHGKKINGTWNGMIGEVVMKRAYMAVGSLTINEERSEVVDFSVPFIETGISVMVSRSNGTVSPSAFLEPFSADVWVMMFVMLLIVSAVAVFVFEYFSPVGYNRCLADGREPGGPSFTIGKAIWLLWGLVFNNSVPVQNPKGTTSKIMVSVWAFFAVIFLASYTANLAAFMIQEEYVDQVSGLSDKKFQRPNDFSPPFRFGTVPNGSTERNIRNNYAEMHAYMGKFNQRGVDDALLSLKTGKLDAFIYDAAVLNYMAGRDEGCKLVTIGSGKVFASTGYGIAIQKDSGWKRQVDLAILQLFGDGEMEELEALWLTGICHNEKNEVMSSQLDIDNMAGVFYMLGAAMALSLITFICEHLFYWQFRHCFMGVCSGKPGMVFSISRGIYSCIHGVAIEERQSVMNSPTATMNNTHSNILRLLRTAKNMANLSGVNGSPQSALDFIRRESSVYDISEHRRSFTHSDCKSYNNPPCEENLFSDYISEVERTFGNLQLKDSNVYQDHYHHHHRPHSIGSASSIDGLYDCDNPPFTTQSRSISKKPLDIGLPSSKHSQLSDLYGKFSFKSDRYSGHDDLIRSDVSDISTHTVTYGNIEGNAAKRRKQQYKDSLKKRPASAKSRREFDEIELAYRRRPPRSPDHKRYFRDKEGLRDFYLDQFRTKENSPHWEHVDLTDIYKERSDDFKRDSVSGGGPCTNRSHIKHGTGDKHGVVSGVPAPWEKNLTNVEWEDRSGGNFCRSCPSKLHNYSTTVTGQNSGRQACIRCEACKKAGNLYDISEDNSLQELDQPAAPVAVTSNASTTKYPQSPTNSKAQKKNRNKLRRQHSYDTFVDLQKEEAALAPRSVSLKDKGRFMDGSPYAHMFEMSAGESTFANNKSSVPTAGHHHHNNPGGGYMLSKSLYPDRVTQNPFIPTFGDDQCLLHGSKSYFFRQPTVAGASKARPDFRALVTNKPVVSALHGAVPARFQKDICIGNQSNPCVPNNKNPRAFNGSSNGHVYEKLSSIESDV

[3] = Ratio of Kapp for wild type NR2B receptor to Kapp for NR2B receptor ATD T103A mutant
[4] = tested on: Glutamate receptor ionotropic, NMDA 2B (Homo sapiens), Q13224 [L643A,K234A]; experiment: Binding affinity to NR2B receptor L643A/K234A mutant
[5] = tested on: Glutamate receptor ionotropic, NMDA 2B (Homo sapiens), Q13224 [I641A]; experiment: Binding affinity to NR2B receptor M3c I641A mutant
[6] = Ratio of Kapp for wild type NR2B receptor to Kapp for NR2B receptor L643C/T647A mutant
[7] = tested on: Glutamate receptor ionotropic, NMDA 2B (Homo sapiens), Q13224 [F653A]; experiment: Inhibition of NR2B receptor M3c F653A mutant expressed in Xenopus oocytes assessed as NMDA current at 0.5 mM relative to control; type: cell-based; settings: Oocyte
[8] = Ratio of Kapp for wild type NR2B receptor to Kapp for NR2B receptor S645A/K234A mutant
[9] = Ratio of Kapp for wild type NR2B receptor to Kapp for NR2B receptor T103A/K234A mutant
[10] = tested on: Glutamate receptor ionotropic, NMDA 2B (Homo sapiens), Q13224 [N616A]; experiment: Inhibition of NR2B receptor M2 N616A mutant expressed in Xenopus oocytes assessed as NMDA current at 0.5 mM relative to control; type: cell-based; settings: Oocyte
[11] = tested on: Glutamate receptor ionotropic, NMDA 2B (Homo sapiens), Q13224 [F176A]; experiment: Binding affinity to NR2B receptor ATD F176A mutant
Chain of Glutamate receptor ionotropic, NMDA 2B (Homo sapiens), Q13224 [F176A] (Q13224 whole entry F176A): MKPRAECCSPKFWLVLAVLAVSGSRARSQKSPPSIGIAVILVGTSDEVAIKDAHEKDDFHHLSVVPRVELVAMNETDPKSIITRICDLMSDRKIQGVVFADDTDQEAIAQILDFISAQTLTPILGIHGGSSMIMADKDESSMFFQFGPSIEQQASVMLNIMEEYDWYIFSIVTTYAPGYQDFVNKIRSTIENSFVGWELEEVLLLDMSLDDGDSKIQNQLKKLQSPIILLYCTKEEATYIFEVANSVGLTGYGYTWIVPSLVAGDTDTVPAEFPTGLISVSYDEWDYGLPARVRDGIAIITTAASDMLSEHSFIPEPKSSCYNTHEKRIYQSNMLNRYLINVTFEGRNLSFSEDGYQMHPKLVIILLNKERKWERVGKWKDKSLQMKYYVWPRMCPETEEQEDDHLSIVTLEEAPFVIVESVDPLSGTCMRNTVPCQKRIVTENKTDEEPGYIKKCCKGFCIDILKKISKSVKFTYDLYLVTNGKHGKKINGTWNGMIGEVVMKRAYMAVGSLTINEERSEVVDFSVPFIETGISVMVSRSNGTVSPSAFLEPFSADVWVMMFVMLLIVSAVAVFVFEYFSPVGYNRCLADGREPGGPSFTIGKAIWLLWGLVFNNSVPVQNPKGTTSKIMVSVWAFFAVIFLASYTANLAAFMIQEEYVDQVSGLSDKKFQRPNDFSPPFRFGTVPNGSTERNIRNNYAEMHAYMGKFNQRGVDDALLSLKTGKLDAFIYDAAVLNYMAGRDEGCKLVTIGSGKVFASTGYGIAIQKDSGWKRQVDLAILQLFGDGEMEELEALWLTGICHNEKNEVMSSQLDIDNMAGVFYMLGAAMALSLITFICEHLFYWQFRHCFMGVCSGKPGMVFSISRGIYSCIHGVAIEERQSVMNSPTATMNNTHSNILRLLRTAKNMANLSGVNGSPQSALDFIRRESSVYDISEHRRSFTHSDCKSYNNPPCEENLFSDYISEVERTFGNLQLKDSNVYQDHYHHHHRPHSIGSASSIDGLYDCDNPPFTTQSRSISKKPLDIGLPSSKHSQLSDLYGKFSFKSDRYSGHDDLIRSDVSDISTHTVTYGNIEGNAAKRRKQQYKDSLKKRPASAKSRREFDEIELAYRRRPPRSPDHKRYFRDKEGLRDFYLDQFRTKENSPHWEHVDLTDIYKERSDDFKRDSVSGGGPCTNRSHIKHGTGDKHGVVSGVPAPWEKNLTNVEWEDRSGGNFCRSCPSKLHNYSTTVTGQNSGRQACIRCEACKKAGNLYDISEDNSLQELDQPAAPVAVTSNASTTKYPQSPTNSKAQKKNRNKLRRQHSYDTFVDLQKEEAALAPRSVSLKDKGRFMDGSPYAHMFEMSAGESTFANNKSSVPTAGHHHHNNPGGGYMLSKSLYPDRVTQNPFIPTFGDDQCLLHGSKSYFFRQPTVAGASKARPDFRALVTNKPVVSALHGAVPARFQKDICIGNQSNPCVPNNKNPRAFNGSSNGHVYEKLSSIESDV

[12] = molecular target: Glutamate receptor ionotropic, NMDA 2B (Homo sapiens) (UniProt Q13224); experiment: Inhibition of wild type NR2B receptor expressed in Xenopus oocytes assessed as NMDA current at 0.5 mM relative to control; type: cell-based; settings: Oocyte
[13] = Binding affinity to NR2B receptor […]/S645A mutant
[14] = Ratio of Kapp for wild type NR2B receptor to Kapp for NR2B receptor L643A/S645A mutant
[15] = tested on: Glutamate receptor ionotropic, NMDA 2B (Homo sapiens), Q13224 [S546A]; experiment: Inhibition of NR2B receptor Pre-M1 S546A mutant expressed in Xenopus oocytes assessed as NMDA current at 0.5 mM relative to control; type: cell-based; settings: Oocyte
[16] = Ratio of Kapp for wild type NR2B receptor to Kapp for NR2B receptor L643A/K234A mutant
[17] = tested on: Glutamate receptor ionotropic, NMDA 2B (Homo sapiens), Q13224 [L643C,T647A]; experiment: Binding affinity to NR2B receptor L643C/T647A mutant
[18] = tested on: Glutamate receptor ionotropic, NMDA 2B (Homo sapiens), Q13224 [W559A]; experiment: Inhibition of NR2B receptor Pre-M1 W559A mutant expressed in Xenopus oocytes assessed as NMDA current at 0.5 mM relative to control; type: cell-based; settings: Oocyte
[19] = tested on: Glutamate receptor ionotropic, NMDA 2B (Homo sapiens), Q13224 [F642A]; experiment: Inhibition of NR2B receptor M3c F642A mutant expressed in Xenopus oocytes assessed as NMDA current at 0.5 mM relative to control; type: cell-based; settings: Oocyte
Chain of Glutamate receptor ionotropic, NMDA 2B (Homo sapiens), Q13224 [F642A] (Q13224 whole entry F642A): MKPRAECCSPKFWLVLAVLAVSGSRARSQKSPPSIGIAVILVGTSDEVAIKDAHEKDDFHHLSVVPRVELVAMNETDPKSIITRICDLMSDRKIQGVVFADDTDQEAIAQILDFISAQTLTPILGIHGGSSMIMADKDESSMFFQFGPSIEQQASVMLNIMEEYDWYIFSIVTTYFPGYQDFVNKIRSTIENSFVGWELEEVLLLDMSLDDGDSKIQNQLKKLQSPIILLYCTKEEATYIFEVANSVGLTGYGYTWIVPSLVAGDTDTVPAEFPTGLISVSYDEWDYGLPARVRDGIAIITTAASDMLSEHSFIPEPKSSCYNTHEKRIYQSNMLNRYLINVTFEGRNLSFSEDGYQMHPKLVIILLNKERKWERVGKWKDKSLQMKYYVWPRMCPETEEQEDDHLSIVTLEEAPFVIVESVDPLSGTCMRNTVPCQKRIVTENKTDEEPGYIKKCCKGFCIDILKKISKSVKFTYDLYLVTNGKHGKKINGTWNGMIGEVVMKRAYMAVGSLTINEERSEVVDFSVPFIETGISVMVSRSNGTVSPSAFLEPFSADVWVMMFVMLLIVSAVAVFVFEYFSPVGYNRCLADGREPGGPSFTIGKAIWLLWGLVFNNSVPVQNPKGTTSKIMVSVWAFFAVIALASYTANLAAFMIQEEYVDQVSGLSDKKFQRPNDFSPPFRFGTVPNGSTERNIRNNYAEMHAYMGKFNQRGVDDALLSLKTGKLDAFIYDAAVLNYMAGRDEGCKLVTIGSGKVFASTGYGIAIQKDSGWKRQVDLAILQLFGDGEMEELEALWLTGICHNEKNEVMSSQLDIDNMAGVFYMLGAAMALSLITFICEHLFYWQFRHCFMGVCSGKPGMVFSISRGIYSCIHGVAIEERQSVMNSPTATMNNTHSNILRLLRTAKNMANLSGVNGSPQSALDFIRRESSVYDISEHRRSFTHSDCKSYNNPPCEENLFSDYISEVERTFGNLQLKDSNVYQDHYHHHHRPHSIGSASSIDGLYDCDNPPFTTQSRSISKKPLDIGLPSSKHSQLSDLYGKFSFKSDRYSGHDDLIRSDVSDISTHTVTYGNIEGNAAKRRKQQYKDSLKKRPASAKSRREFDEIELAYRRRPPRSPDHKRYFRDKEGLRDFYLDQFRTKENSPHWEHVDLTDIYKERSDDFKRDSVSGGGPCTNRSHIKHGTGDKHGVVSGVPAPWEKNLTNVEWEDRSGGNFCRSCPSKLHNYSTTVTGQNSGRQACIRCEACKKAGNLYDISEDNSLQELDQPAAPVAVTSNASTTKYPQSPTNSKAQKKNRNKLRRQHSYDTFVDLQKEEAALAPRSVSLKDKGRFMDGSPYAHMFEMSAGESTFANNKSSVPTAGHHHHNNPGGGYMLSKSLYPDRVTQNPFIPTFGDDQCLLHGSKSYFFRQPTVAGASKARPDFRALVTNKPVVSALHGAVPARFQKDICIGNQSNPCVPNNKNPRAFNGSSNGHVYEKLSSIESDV

[20] = tested on: Glutamate receptor ionotropic, NMDA 2B (Homo sapiens), Q13224 [M654A]; experiment: Inhibition of NR2B receptor post-M3 M654A mutant expressed in Xenopus oocytes assessed as NMDA current at 0.5 mM relative to control; type: cell-based; settings: Oocyte
[21] = Ratio of Kapp for wild type NR2B receptor to Kapp for NR2B receptor T647A/S645A mutant
[22] = tested on: Glutamate receptor ionotropic, NMDA 2B (Homo sapiens), Q13224 [S555A]; experiment: Inhibition of NR2B receptor Pre-M1 S555A mutant expressed in Xenopus oocytes assessed as NMDA current at 0.5 mM relative to control; type: cell-based; settings: Oocyte
[23] = tested on: Glutamate receptor ionotropic, NMDA 2B (Homo sapiens), Q13224 [D101A]; experiment: Binding affinity to NR2B receptor ATD D101A mutant
[24] = tested on: Glutamate receptor ionotropic, NMDA 2B (Homo sapiens), Q13224 [A644C]; experiment: Inhibition of NR2B receptor M3c A644C mutant expressed in Xenopus oocytes assessed as NMDA current at 0.5 mM relative to control; type: cell-based; settings: Oocyte
[25] = tested on: Glutamate receptor ionotropic, NMDA 2B (Homo sapiens), Q13224 [T103A,K234A]; experiment: Binding affinity to NR2B receptor T103A/K234A mutant
[26] = tested on: Glutamate receptor ionotropic, NMDA 2B (Homo sapiens), Q13224 [E657A]; experiment: Inhibition of NR2B receptor post-M3 E657A mutant expressed in Xenopus oocytes assessed as NMDA current at 0.5 mM relative to control; type: cell-based; settings: Oocyte
[27] = tested on: Glutamate receptor ionotropic, NMDA 2B (Homo sapiens), Q13224 [N649A]; experiment: Inhibition of NR2B receptor M3c N649A mutant expressed in Xenopus oocytes assessed as NMDA current at 0.5 mM relative to control; type: cell-based; settings: Oocyte
[28] = tested on: Glutamate receptor ionotropic, NMDA 2B (Homo sapiens), Q13224 [L643A,T647A]; experiment: Binding affinity to NR2B receptor L643A/T647A mutant
[29] = tested on: Glutamate receptor ionotropic, NMDA 2B (Homo sapiens), Q13224 [S645A]; experiment: Inhibition of NR2B receptor M3c S645A mutant expressed in Xenopus oocytes assessed as NMDA current at 0.5 mM relative to control; type: cell-based; settings: Oocyte
[30] = tested on: Glutamate receptor ionotropic, NMDA 2B (Homo sapiens), Q13224 [A652T]; experiment: Inhibition of NR2B receptor M3c A652T mutant expressed in Xenopus oocytes assessed as NMDA current at 0.5 mM relative to control; type: cell-based; settings: Oocyte
[31] = tested on: Glutamate receptor ionotropic, NMDA 2B (Homo sapiens), Q13224 [T103A]; experiment: Inhibition of NR2B receptor ATD T103A mutant expressed in Xenopus oocytes assessed as NMDA current at 0.5 mM relative to control; type: cell-based; settings: Oocyte
[32] = Ratio of Kapp for wild type NR2B receptor to Kapp for NR2B receptor M3c I641A mutant
[33] = tested on: Glutamate receptor ionotropic, NMDA 2B (Homo sapiens), Q13224 [S645A,I641A]; experiment: Binding affinity to NR2B receptor S645A/I641A mutant
[34] = Ratio of Kapp for wild type NR2B receptor to Kapp for NR2B receptor S645A/I641A mutant
[35] = Ratio of Kapp for wild type NR2B receptor to Kapp for NR2B receptor S645A/T103A mutant
[36] = tested on: Glutamate receptor ionotropic, NMDA 2B (Homo sapiens), Q13224 [D104A]; experiment: Inhibition of NR2B receptor ATD D104A mutant expressed in Xenopus oocytes assessed as NMDA current at 0.5 mM relative to control; type: cell-based; settings: Oocyte

An inhibition [1] of 90%, an inhibition [2] of 83% and a Ratio Ki(app) [3] of 4.8 were found for NC(=O)OCC(COC(N)=O)c1ccccc1 in this work. For the same molecule, the Kapp [4] was 6.33 mM, the Kapp [5] was 2.45 mM and the Ratio Ki(app) [6] was 21. The Activity [7] was “inactive”, the Ratio Ki(app) [8] was 8.2 and the Ratio Ki(app) [9] was 4.8. The inhibition [10] was 72%, the Kapp [11] was 2.77 mM and the inhibition [12] was 68%. It also gave a Kapp [13] of 7.04 mM, a Ratio Ki(app) [14] of 7.7 and an inhibition [15] of 64%. For the same molecule, the Ratio Ki(app) [16] was 7.3, the Kapp [17] was 18.6 mM and the Activity [18] was “inactive”. For the same molecule, the inhibition [19] was 75%, the inhibition [20] was 71% and the Ratio Ki(app) [21] was 8.1. For the same molecule, the inhibition [22] was 72%, the Kapp [23] was 2.76 mM and the inhibition [24] was 73%. The Kapp [25] was 4.14 mM, the inhibition [26] was 61% and the Activity [27] was “inactive”. It also gave a Kapp [28] of 34.5 mM, an inhibition [29] of 85% and an inhibition [30] of 83%. It also gave an inhibition [31] of 85%, a Ratio Ki(app) [32] of 2.8 and a Kapp [33] of 4.43 mM. It also gave a Ratio Ki(app) [34] of 5.1, a Ratio Ki(app) [35] of 7.2 and an inhibition [36] of 75%.
